Test results from paper PMC11277192 (International Journal of Molecular Sciences, 2024).
pEC50, pIC50: −log10 of the molar value.

Legend:
[1] = system: MOR; set-up: method as in PMID 35412886; settings: 10 µM; cited from earlier work
[2] = target: T1, 5HT-1A receptor (Homo sapiens, UniProt P08908); experiment: 5HT-1A agonist PathHunter β-arrestin assay; set-up: Emax: dose or concentration left out as unconfirmed; settings: for Emax: CHO-K1, read-out: 5HT-1A agonism, % of the maximum response of serotonin
T1 sequence (P08908 1-422): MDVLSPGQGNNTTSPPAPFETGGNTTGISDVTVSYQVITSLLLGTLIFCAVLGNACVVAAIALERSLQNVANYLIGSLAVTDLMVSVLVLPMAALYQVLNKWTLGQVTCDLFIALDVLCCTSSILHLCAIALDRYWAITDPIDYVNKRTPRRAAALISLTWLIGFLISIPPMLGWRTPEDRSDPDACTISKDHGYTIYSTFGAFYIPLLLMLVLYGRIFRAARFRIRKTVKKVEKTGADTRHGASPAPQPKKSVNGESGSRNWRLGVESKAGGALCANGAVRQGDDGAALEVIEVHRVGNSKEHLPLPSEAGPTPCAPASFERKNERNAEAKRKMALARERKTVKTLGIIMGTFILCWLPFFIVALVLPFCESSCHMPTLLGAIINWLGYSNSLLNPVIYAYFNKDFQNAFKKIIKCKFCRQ
Text: (§1) One hundred percent relative activity was normalized to maximum stimulation of endogenous agonists and 0% relative activity to compound vehicle control.
For the 5HT-1A agonist assay, PathHunter® β-arrestin cells (CHO-K1) were expanded from freezer stocks according to standard procedures provided by Eurofins. The cell line manual was followed for cell growth (including cell culture media and supplementation, cell handling and preparation, etc.), test procedure, and signal detection.
In summary, cells were seeded at a total volume of 20 µL (10,000 cells) into white-walled, 384-well microplates and incubated at 37 °C for the appropriate time prior to testing. After preparing stock acetonitrile solution at a 1 mg/mL concentration of ligand, compound intermediate concentrations were achieved by a 10-point series of 3-fold compound serial dilutions in a compound dilution buffer in a separate dilution plate. The concentration of each dilution was prepared at 5× of the final screening concentration. […] Then, 12.5 μL Working Detection Solution was added, and the cells were incubated for 1 h at room temperature in the dark. The assay signal was generated through a single addition of 15 µL (50% v/v) of the PathHunter Detection reagent cocktail, followed by a one-hour incubation at room temperature. Microplates were read following signal generation with a PerkinElmer Envision instrument for chemiluminescent signal detection.

[3] = target: T2, CB2 receptor (Homo sapiens, UniProt P34972); experiment: Radioligand binding assay, displacement of [3H]-CP55940 at CB2; settings: 1 µM compound; 100% = 1 µM WIN55212-2
T2 construct: host or cells: CHO-K1 (from the C2 catalogue suffix and 'same protocol' as CB1)
T2 sequence (P34972 whole entry): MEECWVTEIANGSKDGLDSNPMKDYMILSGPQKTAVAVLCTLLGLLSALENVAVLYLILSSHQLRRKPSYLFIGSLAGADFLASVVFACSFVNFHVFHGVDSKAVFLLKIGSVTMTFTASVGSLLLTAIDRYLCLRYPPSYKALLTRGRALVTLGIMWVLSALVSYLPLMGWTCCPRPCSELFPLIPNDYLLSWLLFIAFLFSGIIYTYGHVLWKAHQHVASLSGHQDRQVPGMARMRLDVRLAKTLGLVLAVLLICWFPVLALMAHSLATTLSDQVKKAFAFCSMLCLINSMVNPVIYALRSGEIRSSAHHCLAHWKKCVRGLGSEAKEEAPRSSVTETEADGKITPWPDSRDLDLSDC
Experimental: A total of 750 nl of the reference and test compounds was transferred to a 96-well compound plate, and 150 µL assay buffer was added to each well to achieve a 5× final concentration. The plates were centrifuged for 30 s at 1000 rpm and then agitated at 600 rpm and room temperature for 5 min.
Separately, 50 µL of 0.5% v/v PEI was added to each well of UniFilter-96 GF/C plates. The plates were sealed and incubated at 4 °C for 3 h. After incubation, they were washed 2 times with ice-cold wash buffer.
The cell membrane was diluted with assay buffer, and 330 µL was transferred to 96 round deep-well plates to reach a concentration of 10 µg/well. […] The plates were centrifuged at 1000 rpm for 30 s and then agitated at 600 rpm for 5 min (room temperature). The plates were sealed and incubated at 30 °C for 90 min. The incubation was stopped by vacuum filtration onto GF/C filter plates, followed by washing 4 times with ice-cold wash buffer. The plates were dried at 37 °C for 45 min. After the addition of 40 µL of scintillation cocktail, a Microbeta2 microplate counter was used to detect the radioactivity signals.

[4] = target: T3, CB1 receptor (Homo sapiens, UniProt P21554); experiment: CB1 antagonist cAMP assay (HitHunter cAMP XS+), CP55,940 challenge; format: cell-based; settings: for Emax: CHO-K1, read-out: CB1 antagonist activity, % of the maximum response of AM251; for Concentration at which CB1 antagonist activity above the baseline appeared: CP55,940 1 nM, CHO-K1
T3 construct: host or cells: CHO-K1
T3 sequence (P21554 whole entry): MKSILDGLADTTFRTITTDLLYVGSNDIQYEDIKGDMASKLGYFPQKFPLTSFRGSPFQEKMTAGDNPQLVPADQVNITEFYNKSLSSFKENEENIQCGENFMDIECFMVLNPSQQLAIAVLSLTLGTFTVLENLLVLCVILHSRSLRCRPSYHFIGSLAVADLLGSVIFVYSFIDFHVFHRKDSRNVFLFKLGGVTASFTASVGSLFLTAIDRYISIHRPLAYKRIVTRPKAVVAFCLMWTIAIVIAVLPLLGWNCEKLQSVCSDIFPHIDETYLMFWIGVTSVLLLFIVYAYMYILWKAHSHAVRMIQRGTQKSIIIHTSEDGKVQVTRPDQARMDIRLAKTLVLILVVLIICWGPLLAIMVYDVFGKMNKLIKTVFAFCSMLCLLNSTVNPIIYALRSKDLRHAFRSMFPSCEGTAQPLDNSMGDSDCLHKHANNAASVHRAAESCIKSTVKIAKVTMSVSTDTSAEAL
Experimental: (§2) In summary, cells were seeded in a total volume of 20 µL (10,000 cells) into white-walled, 384-well microplates and incubated at 37 °C for the appropriate time prior to testing.
(§3) For the CB1 and CB2 antagonist assays, cells were pre-incubated with antagonists/compounds, followed by an agonist challenge at an ~EC80 concentration. Similar to the agonist assay, before adding the ligands, media were aspirated from cells and replaced with 15 µL 2:1 HBSS/10mM HEPES/cAMP XS+ Ab reagent. A total of 5 μL of 4× compound solution, prepared in a separate plate by a 10-point series of 3-fold compound serial dilutions in assay buffer (forskolin excluded), was added to the cells and incubated at 37 °C for 30 min. […] The assay signal was generated through incubation with 20 μL cAMP XS+ ED/CL lysis cocktail for one hour, followed by incubation with 20 μL cAMP XS+ EA reagent for three hours at room temperature. A PerkinElmer Envision instrument was used for chemiluminescent signal detection.

[5] = target: T2, CB2 receptor; experiment: CB2 antagonist cAMP assay (HitHunter cAMP XS+), CP55,940 challenge; format: cell-based; settings: for Emax: read-out: CB2 antagonist activity, % of the maximum effect of SR144528, highest tested concentration (12 µM), CP55,940 1 nM
Experimental: In summary, cells were seeded in a total volume of 20 µL (10,000 cells) into white-walled, 384-well microplates and incubated at 37 °C for the appropriate time prior to testing. […] The assay signal was generated through incubation with 20 μL cAMP XS+ ED/CL lysis cocktail for one hour, followed by incubation with 20 μL cAMP XS+ EA reagent for three hours at room temperature. Microplates were read following signal generation with a PerkinElmer Envision instrument for chemiluminescent signal detection.
as §3

[6] = target: T4, mu-opioid receptor (MOR, OPRM1) (Homo sapiens, UniProt P35372); format: cell-based; settings: for Increase in the met-enkephalin internalization signal: 10 µM compound, 30 min pre-treatment, then 1 µM met-enkephalin
T4 construct: host or cells: U2OS (methods); the results text b24 says CHO-K1
T4 sequence (P35372 whole entry): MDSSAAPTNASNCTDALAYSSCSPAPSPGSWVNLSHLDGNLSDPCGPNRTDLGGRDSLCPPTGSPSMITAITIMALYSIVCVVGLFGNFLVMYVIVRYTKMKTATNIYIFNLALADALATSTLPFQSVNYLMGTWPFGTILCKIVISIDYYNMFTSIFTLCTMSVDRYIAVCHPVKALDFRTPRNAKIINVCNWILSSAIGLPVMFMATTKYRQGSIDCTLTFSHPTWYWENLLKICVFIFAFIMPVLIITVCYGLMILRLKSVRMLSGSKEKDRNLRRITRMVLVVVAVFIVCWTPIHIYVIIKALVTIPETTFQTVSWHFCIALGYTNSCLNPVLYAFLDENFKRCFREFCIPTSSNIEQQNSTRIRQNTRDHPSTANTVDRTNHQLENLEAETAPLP
Experimental: For the MOR antagonist/NAM assay, PathHunter® OPRM1 (opioid receptor mu 1) total GPCR (G protein-coupled receptors) internalization U2OS cell lines were expanded from freezer stocks according to standard procedures. The cell line manual was followed for cell growth (including cell culture media and supplementation, cell handling and preparation, etc.), test procedures, and signal detection.
In summary, cells were seeded in a total volume of 20 µL (10,000 cells) into white-walled, 384-well microplates and incubated at 37 °C overnight prior to testing. After preparing a stock acetonitrile solution at a 1 mg/mL concentration of ligand, compound intermediate concentrations were achieved by a 10-point series of 3-fold compound serial dilutions in a compound dilution buffer in a separate dilution plate. The concentration of each dilution was prepared at 10× of the final screening concentration. […] A PerkinElmer Envision instrument was used for chemiluminescent signal detection.

[7] = target: T5, dopamine D2S receptor (Homo sapiens, UniProt P14416); experiment: D2S agonist HitHunter cAMP XS+ assay; format: cell-based; set-up: Emax: dose or concentration left out as unconfirmed
T5 construct: host or cells: CHO-K1
T5 sequence (P14416 1-414 isoform P14416-2): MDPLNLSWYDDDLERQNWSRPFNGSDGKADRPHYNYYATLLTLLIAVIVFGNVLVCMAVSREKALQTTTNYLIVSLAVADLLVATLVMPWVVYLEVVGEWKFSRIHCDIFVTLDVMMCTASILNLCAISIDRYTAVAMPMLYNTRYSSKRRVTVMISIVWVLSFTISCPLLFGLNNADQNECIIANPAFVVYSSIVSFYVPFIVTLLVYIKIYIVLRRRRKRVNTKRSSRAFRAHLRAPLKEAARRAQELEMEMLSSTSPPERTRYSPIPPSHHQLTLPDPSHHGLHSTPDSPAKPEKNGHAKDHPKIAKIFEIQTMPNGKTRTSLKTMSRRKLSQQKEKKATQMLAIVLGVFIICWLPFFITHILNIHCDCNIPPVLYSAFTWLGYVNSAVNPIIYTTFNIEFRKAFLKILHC
Experimental: as §1
For the D2S agonist assay, cAMP CHO-K1 Hunter cell lines were expanded from freezer stocks according to standard procedures. The cell line manual was followed for cell growth (including cell culture media and supplementation, cell handling and preparation, etc.), test procedures, and signal detection.
as §2

[8] = system: mice; set-up: method as in PMID 31889124; settings: doses 2.5 to 10 mg/kg; cited from earlier work

| Compound | Activity of MOR in GTP turnover rate assay [1] | pEC50 [2] | Emax [2] | Displacement of radiolabeled CP55940 at the CB2 binding site [3] | Emax [4] | Concentration at which CB1 antagonist activity above the baseline appeared [4] | pIC50 ([4]; read-out: CB1 antagonist IC50 (not reached within tested range)) | pIC50 ([5]; read-out: CB2 antagonist IC50 (not reached within tested concentrations)) | Emax [5] | Met-enkephalin-induced mu-opioid internalization (in words) ([6]; 3 µM compound and 1 µM met-enkephalin) | Increase in the met-enkephalin internalization signal [6] | D2S agonism (in words) ([7]; within the tested concentration range (up to 12 µM)) | Emax ([7]; CHO-K1, read-out: D2S agonist activity, % maximum response of dopamine) | In vivo effects in mice [8] |
| --- | --- | --- | --- | --- | --- | --- | --- | --- | --- | --- | --- | --- | --- | --- |
| COc1ccc(C2SCCN2S(=O)(=O)c2ccc(Cl)cc2)cc1Br (stereo not drawn) [BMS-986122] | 166% | – | – | – | – | – | – | – | – | – | – | – | – | – |
| C=C(C)[C@@H]1CCC(C)=C[C@H]1c1c(O)cc(CCCCCCC)cc1O [CBDP, cannabidiphorol] | – | < 4.92 | ~20% | approximately 50% | ~20% | 3 µM | < 4.92 | < 4.92 | ~23% | significant increase | 37% | did not show any sign of agonism | – | – |
| C=C(C)[C@@H]1CCC(C)=C[C@H]1c1c(O)cc(CCCCC)cc1O [CBD, Cannabidiol, reference compound] | – | < 4.92 | ~20% | approximately 50% | ~20% | 3 µM | – | – | ~33% | – | 18% | – | 10.7% | – |
| CCCCCCCc1cc(O)c2c(c1)OC(C)(C)[C@@H]1CCC(C)=C[C@@H]21 [Δ9-THCP, tetrahydrocannabiphorol] | – | – | – | – | – | – | – | – | – | – | – | – | – | induce THC-like hypomotility, analgesia, and catalepsy |
